One substance from publication PMC8708390, “Fatty Acid Modification of the Anticancer Peptide LVTX-9 to Enhance Its Cytotoxicity against Malignant Melanoma Cells” (Toxins, 2021) can be followed below.

Data set [1] deals with B16-F10 cells. The experiment in a line: LDH leakage assay. Conditions: 25 μM, 24 h, absorbance 490 nm, n = 3. It is filed as cell-based, mouse. The method, then:
At first, the B16-F10 cells were cultured in 96-well plates for 24 h at approximately 2 × 10^3 cells/well. Subsequently, the cells were treated for 24 h with LVTX-9 or LVTX-9-C18 with a series of concentration gradients. LDH leakage detection was detected using an LDH Cytotoxicity Assay Kit according to the manufacturer’s instructions (Beyotime, Shanghai, China. C0017). The absorption was measured using an Absorbance Microplate Reader (BioTek Instruments) at 490 nm. The LDH release (%) of peptides was calculated by GraphPad prism 5.0.

Data set [2] in a line: Circular dichroism secondary structure. It is filed as physicochemical. The settings on record: 100 µM, 25 °C, 180-280 nm. The method, then: (§1) Dynamic light scattering (DLS) of Zetasizer Nano ZSP (Malvern Instruments, Malvern, UK) apparatus was used to determine the hydrodynamic size and zeta potential of LVTX-9 and LVTX-9-C18. The peptides concentrations were diluted to 100 µM with ultrapure water with a final volume of 1 mL. The procedure ran at 25 °C, with each experiment repeated three times. The secondary structures of LVTX-9 and LVTX-9-C18 were determined to be in line with the previous protocol. The peptide concentrations were then diluted to 100 µM with ultrapure water and 100 mM of SDS was added in a final volume of 250 μL. The procedure was carried out at 25 °C. CD spectra were recorded between 180 nm and 280 nm on a Jasco J-815 CD spectrometer.
A general note: Circular dichroism is the unequal absorption of left and right circularly polarised light.

The next data set concerns B16-F10 tumor spheroids. Description: Toxicity in 3D tumor spheroids. Conditions: 50 or 25 μM, RPMI-1640 with 10% serum, 3 days. In kind it is cell-based, mouse. On the procedure: To further study the toxicity of LVTX-9 and LVTX-9-C18 in vitro, B16-F10 tumor spheroids, as 3D tumor models, were cultured according to protocols in the literature. Briefly, B16-F10 cells were seeded into an ultra-low attachment, 96-well, round-bottom plate (Corning) and cultured at 37 °C for 3–4 days. Then, the B16-F10 tumor spheroids were treated with 50 or 25 μM of LVTX-9 and 20 or 10 μM of LVTX-9-C18 in the RPMI-1640 supplied with 10% serum for 3 days. Subsequently, images were taken on days 0 and 3, and the cell viability was measured using a CellTiter-Glo 3D Cell Viability Assay (G9683).

For data set [3], the system named is B16-F10 cells. Description: Scanning electron microscopy of cell membrane. It is filed as cell-based, mouse. Conditions: 50 μM, 24 h. The method, then: The morphologic changes of the cell membrane of B16-F10 cells treated with peptides were observed by SEM [14]. The cells were seeded on coverslips and placed into a six-well plate, then treated with LVTX-9 (50 μM) and LVTX-9-C18 (5 μM) for 24 h. After incubation, the B16-F10 cells were washed with sterile PBS gently three times and fixed with 2 mL of 2.5% glutaraldehyde solution in each well for 4 h at room temperature. Then, the fixed cells were dehydrated with a series of ethanol concentrations. We dried the samples with a Critical Point Dryer and coated them with gold plating before observation. A scanning electron microscope (Hitachi Su8010, Tokyo, Japan) was used to examine the prepared samples.

Data set [4] in a line: Dynamic light scattering (hydrodynamic size, PDI, zeta potential). It is filed as physicochemical. Conditions: 100 µM in ultrapure water, 25 °C, repeated three times. The method, then:
as §1

The subject of a further data set is erythrocytes. The experiment in a line: Hemolytic activity. It is filed as cell-based. Conditions: 1% RBC in PBS, 30 min at 37 °C, absorbance 450 nm, 0.1% Triton-X 100 positive control. The method, then:
The hemolytic activity levels of LVTX-9 and LVTX-9-C18 were confirmed as follows. Red blood cells (RBC) were washed with sterile PBS and centrifuged for 5 min at 1000 rpm. The supernatant was removed, and cells were resuspended in PBS at a final concentration of 1% (5 × 10^6/mL). The diluted RBC suspension (50 µL) was mixed with PBS (negative control), 0.1% Triton-X 100 (positive control), and LVTX-9 or LVTX-9-C18 with various concentrations at a 1:1 ratio. The mixtures were incubated for 30 min at 37 °C, then centrifuged for 5 min at 12,000 rpm. The supernatant (90 µL) was added to a new 96-well plate to measure the absorbance at 450 nm using a microplate reader, and we produced hemolytic activity curves by GraphPad prism 5.0.

Data set [5] relates to B16-F10 cells. Description: CCK-8 cell viability assay, B16-F10 cells. In kind it is cell-based, mouse. The settings on record: 50 μM, 24 h of treatment, serum-free medium (Figure 3B). The method, then: Mouse skin melanoma cells (B16-F10) were cultured in RPMI-1640 (Gibco), and mouse fibroblast cells (L-929), human lung carcinoma cells (A549), mouse breast cells (4T1), human hepatocarcinoma cells (HepG2), and human cervical carcinoma cells (Hela) were cultured in Dulbecco’s Modified Eagle Medium (DMEM, Gibco). All culture medium contained 10% fetal bovine serum (serum, Gibco), 100 U/mL of penicillin, and […] of streptomycin at 37 °C with 5% CO2.
Cell viability was quantified using a CCK-8 assay. At first, cells were seeded into a 96-well plate at approximately 2 × 10^3 cells/well. The following day, we created a 2-fold dilution series of each peptide using fresh medium (with or without 10% serum) for the treated cells, and cell viability was detected at 450 nm via a CCK-8 assay using an Absorbance Microplate Reader (BioTek Instruments, Winooski, VT, USA) following 24 h of drug incubation. The activity curves and IC50 values of the peptides were visualized using GraphPad prism 5.0.

Data set [6] deals with B16-F10 cells. Description: Colony formation assay. The settings on record: 10 μM, 7 days, crystal violet, mean ± SD, n = 3, control group 51 ± 12.0. It is filed as cell-based, mouse. The method, then: To detect the proliferation of B16-F10 cells treated with LVTX-9 and LVTX-9-C18 at low concentrations, digested cells were counted using a Cellometer K2 and seeded into a 12-well plate with approximately 100 cells per well. After 36 h, cells were treated with LVTX-9 (10 μM) and LVTX-9-C18 (1 μM), then incubated for 7 days at 37 °C in a humidified 5% CO2 atmosphere. Visible colonies were stained with 0.5% crystal violet and photographically recorded. The colony formation rates were calculated, and curves were manufactured by GraphPad prism 5.0.

In data set [7] the test system is B16-F10 cells. The experiment in a line: Trypan blue staining. It is filed as cell-based, mouse. The settings on record: 50 μM, 24 h, 0.04% trypan blue 4 min. On the procedure: B16-F10 cells were seeded into a 48-well plate (2 × 10^3 cells/well) for 24 h and treated with LVTX-9 (50 μM) and LVTX-9-C18 (5 μM) for 24 h. The cells were washed with PBS gently and stained with 0.04% Trypan blue for 4 min. Dead cells were stained blue.

Where no end group is shown, it is not given here.

In the case of “ASIGALIQKAIALIKAKAA-NH2 (C-terminus assumed) [LVTX-9]”, in the data set on B16-F10 cells [1], the “LDH release at 25 μM” value is reported as ~ 2%. Besides, the “secondary structure (CD) in 100 mM of SDS” value in data set [2] (100 mM SDS) is reported as “α-helical conformation”. For the same substance, the “secondary structure (CD) in ultrapure water” value in data set [2] (ultrapure water) is given as “random coil conformation”. Moreover, the “growth of B16-F10 tumor spheroids at 50 or 25 μM” value with B16-F10 tumor spheroids is on record as “gradually grew”. In addition, the “cell membrane morphology by SEM at 50 μM” value in the data set with B16-F10 cells [3] is on record as “intact membranes with smooth surfaces”. Further, the “PDI (hydrodynamic size, DLS)” value in data set [4] was found to be 0.65 ± 0.0481. Further, the “hemolytic activity at 200 μM” value in the data set on erythrocytes is reported as “almost no hemolytic activity”. In the data set on B16-F10 cells [5], the “effect on cell viability at 50 μM” value is “no significant effect on cell viability”. Also, in the data set with B16-F10 cells [6], the “colony number at 10 μM” value amounted to 58 ± 11.4. The “trypan blue staining at 50 μM” value in the data set on B16-F10 cells [7] is “almost unstained”.
